This note sets out measurements from patent US20050197350A1, “Novel quinoline, tetrahydroquinazoline, and pyrimidine derivatives and methods of treatment related to the use thereof” (TAISHO PHARMACEUTICAL CO., LTD., priority 2003, published 2005).

This assay relates to MCH receptors. The assay is described as follows: MCH receptor activity class (method not given). To be noted: class by percent of control at 10^-7 M or IC50.

SMILES strings stand for the structures.

On to `COc1cc(Br)cc(CNC[C@H]2CC[C@@H](Nc3nccc(N(C)C)n3)CC2)c1O` [compound 1250], for which the class is given as 1 (Class 1: The value of percent of control at 10^−7 M was less than 40% or the value of IC50 was less than 50 nM.).
Turning to `CN(C)c1ccnc(N[C@H]2CC[C@@H](CNCc3c[nH]c4ccc(Br)cc34)CC2)n1` [compound 1251], the class is on record as 1 (Class 1: The value of percent of control at 10^−7 M was less than 40% or the value of IC50 was less than 50 nM.).
The value for `COc1ccc(CNC[C@H]2CC[C@@H](Nc3nccc(N(C)C)n3)CC2)c(OC)c1` [compound 1252] was 2 (Class 2: The value of percent of control at 10^−7 M was from 40% to 60% or the value of IC′50 was from 50 nM to 200 nM.).
Take `COc1ccc(CNC[C@H]2CC[C@@H](Nc3nccc(N(C)C)n3)CC2)c(OC)c1OC` [compound 1253]: the class was 1 (Class 1: The value of percent of control at 10^−7 M was less than 40% or the value of IC50 was less than 50 nM.).
In the case of `CCOc1cc(CNC[C@H]2CC[C@@H](Nc3nccc(N(C)C)n3)CC2)ccc1OC` [compound 1255], the class is recorded as 1 (Class 1: The value of percent of control at 10^−7 M was less than 40% or the value of IC50 was less than 50 nM.).
Regarding `CN(C)c1ccnc(N[C@H]2CC[C@@H](CNCc3c[nH]nc3-c3ccc(C(F)(F)F)cc3)CC2)n1` [compound 1256], the class is given as 1 (Class 1: The value of percent of control at 10^−7 M was less than 40% or the value of IC50 was less than 50 nM.).
The value for `COc1cc(CNC[C@H]2CC[C@@H](Nc3nccc(N(C)C)n3)CC2)cc(OC)c1OC` [compound 1257] was 2 (Class 2: The value of percent of control at 10^−7 M was from 40% to 60% or the value of IC′50 was from 50 nM to 200 nM.); that for `COc1cc(CNC[C@H]2CC[C@@H](Nc3nccc(N(C)C)n3)CC2)cc(OC)c1` [compound 1259] was 3 (Class 3 The value of percent of control at 10^−7 M was more than 60% or the value of IC50 was more than 200 nM.); that for `COc1cc(CNC[C@H]2CC[C@@H](Nc3nccc(N(C)C)n3)CC2)cc(I)c1O` [compound 1260] was 1 (Class 1: The value of percent of control at 10^−7 M was less than 40% or the value of IC50 was less than 50 nM.).
The value for `Cc1cc(CNC[C@H]2CC[C@@H](Nc3nccc(N(C)C)n3)CC2)cc(C)c1O` [compound 1261] was 1 (Class 1: The value of percent of control at 10^−7 M was less than 40% or the value of IC50 was less than 50 nM.); that for `COc1ccc(CNC[C@H]2CC[C@@H](Nc3nccc(N(C)C)n3)CC2)cc1` [compound 1262] was 3 (Class 3 The value of percent of control at 10^−7 M was more than 60% or the value of IC50 was more than 200 nM.).
Take `CN(C)c1ccnc(N[C@H]2CC[C@@H](CNCc3ccc4c(c3)OCCO4)CC2)n1` [compound 1263]: the class was 3 (Class 3 The value of percent of control at 10^−7 M was more than 60% or the value of IC50 was more than 200 nM.).
Take `CN(C)c1ccnc(N[C@H]2CC[C@@H](CNCc3cccc(Br)c3)CC2)n1` [compound 1264]: the class is 3 (Class 3 The value of percent of control at 10^−7 M was more than 60% or the value of IC50 was more than 200 nM.).
The value for `COc1cc(OC)c(CNC[C@H]2CC[C@@H](Nc3nccc(N(C)C)n3)CC2)cc1Br` [compound 1265] was 1 (Class 1: The value of percent of control at 10^−7 M was less than 40% or the value of IC50 was less than 50 nM.); that for `COc1ccc(Br)cc1CNC[C@H]1CC[C@@H](Nc2nccc(N(C)C)n2)CC1` [compound 1266] was 1 (Class 1: The value of percent of control at 10^−7 M was less than 40% or the value of IC50 was less than 50 nM.).
As for `CN(C)c1ccnc(N[C@H]2CC[C@@H](CNCc3ccc(O)cc3Cl)CC2)n1` [compound 1267], the class is 3 (Class 3 The value of percent of control at 10^−7 M was more than 60% or the value of IC50 was more than 200 nM.).
On to `CN(C)c1ccnc(N[C@H]2CC[C@@H](CNCc3ccccc3C#N)CC2)n1` [compound 1268], for which the class is 3 (Class 3 The value of percent of control at 10^−7 M was more than 60% or the value of IC50 was more than 200 nM.).
The value for `CN(C)c1ccnc(N[C@H]2CC[C@@H](CNCc3cccc(Cl)c3)CC2)n1` [compound 1269] was 3 (Class 3 The value of percent of control at 10^−7 M was more than 60% or the value of IC50 was more than 200 nM.); that for `CN(C)c1ccnc(N[C@H]2CC[C@@H](CNCc3ccc(Cl)cc3)CC2)n1` [compound 1270] was 3 (Class 3 The value of percent of control at 10^−7 M was more than 60% or the value of IC50 was more than 200 nM.).
In the case of `CCN(CC)c1ccc(CNC[C@H]2CC[C@@H](Nc3nccc(N(C)C)n3)CC2)cc1` [compound 1271], the class is recorded as 2 (Class 2: The value of percent of control at 10^−7 M was from 40% to 60% or the value of IC′50 was from 50 nM to 200 nM.).
As for `CN(C)c1ccc(CNC[C@H]2CC[C@@H](Nc3nccc(N(C)C)n3)CC2)cc1` [compound 1272], the class is 3 (Class 3 The value of percent of control at 10^−7 M was more than 60% or the value of IC50 was more than 200 nM.).
The value for `CCn1c2ccccc2c2cc(CNC[C@H]3CC[C@@H](Nc4nccc(N(C)C)n4)CC3)ccc21` [compound 1273] was 1 (Class 1: The value of percent of control at 10^−7 M was less than 40% or the value of IC50 was less than 50 nM.).
Consider `CN(C)c1ccnc(N[C@H]2CC[C@@H](CNCc3cc(C(F)(F)F)ccc3F)CC2)n1` [compound 1274], for which the class is reported as 3 (Class 3 The value of percent of control at 10^−7 M was more than 60% or the value of IC50 was more than 200 nM.).
With `CN(C)c1ccnc(N[C@H]2CC[C@@H](CNCc3ccc(O)cc3)CC2)n1` [compound 1275], the class is on record as 3 (Class 3 The value of percent of control at 10^−7 M was more than 60% or the value of IC50 was more than 200 nM.).
With `CN(C)c1ccnc(N[C@H]2CC[C@@H](CNCc3ccc(CO)o3)CC2)n1` [compound 1276], the class is 3 (Class 3 The value of percent of control at 10^−7 M was more than 60% or the value of IC50 was more than 200 nM.).
Turning to `CC(C)Oc1ccc(CNC[C@H]2CC[C@@H](Nc3nccc(N(C)C)n3)CC2)cc1` [compound 1277], the class was 2 (Class 2: The value of percent of control at 10^−7 M was from 40% to 60% or the value of IC′50 was from 50 nM to 200 nM.).
The value for `CCc1ccc(CNC[C@H]2CC[C@@H](Nc3nccc(N(C)C)n3)CC2)s1` [compound 1278] was 3 (Class 3 The value of percent of control at 10^−7 M was more than 60% or the value of IC50 was more than 200 nM.).
As to `CN(C)c1ccnc(N[C@H]2CC[C@@H](CNCC=C(c3ccccc3)c3ccccc3)CC2)n1` [compound 1279], the class is reported as 1 (Class 1: The value of percent of control at 10^−7 M was less than 40% or the value of IC50 was less than 50 nM.).
Consider `CCOc1cc(CNC[C@H]2CC[C@@H](Nc3nccc(N(C)C)n3)CC2)ccc1O` [compound 1280], for which the class is recorded as 2 (Class 2: The value of percent of control at 10^−7 M was from 40% to 60% or the value of IC′50 was from 50 nM to 200 nM.).
The value for `CN(C)c1ccnc(N[C@H]2CC[C@@H](CNCc3ccc(N(C)C)c4ccccc34)CC2)n1` [compound 1281] was 2 (Class 2: The value of percent of control at 10^−7 M was from 40% to 60% or the value of IC′50 was from 50 nM to 200 nM.).
